From patent US20230085307A1, “PYRIDAZINONE COMPOUND AND HERBICIDE” (NISSAN CHEMICAL CORPORATION, priority 2019, published 2023)

Assays:
[1] = test system: velvetleaf; assay: Test Example 4: herbicidal effect by soil treatment (Table 19, symbol M); type: in vivo, velvetleaf (Abutilon theophrasti); settings: amount of applied herbicide 320 g/ha
How it was run: (§1)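 Applied as a water-diluted emulsion, the compound was sprayed onto soil covering newly sown seeds. Evaluation came three weeks after application, in a greenhouse held at 25° C. to 30° C.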

[2] = test system: lambsquarters; assay: Test Example 4: herbicidal effect by soil treatment (Table 19, symbol O); type: in vivo, lambsquarters (Chenopodium album); settings: amount of applied herbicide 320 g/ha
How it was run: as §1

[3] = test system: blackgrass; assay: Test Example 5: herbicidal effect by foliage application, plastic box (Table 20, symbol J); type: in vivo, blackgrass (Alopecurus myosuroides); settings: foliage application, AAH 320 g/ha, evaluated three weeks after application
How it was run: (§2)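 Sow seeds spot-wise in sterilized diluvial soil; cover with ~1.5 cm soil. Grow 14 days in greenhouse, 25° C. to 30° C. Spray foliage with emulsion diluted to predetermined amount. Rate effect after 3 weeks.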

[4] = test system: Chinese sprangletop; assay: Test Example 3: herbicidal effect by foliage application, Wagner pot (Table 18, symbol D); type: in vivo, chinese sprangletop (Leptochloa chinensis); settings: amount of applied herbicide 320 g/ha
How it was run: (§3)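 Plants were sown in alluvial soil held under 0.1–0.5 cm standing water and grown 14 days in a greenhouse at 25–30 °C. An emulsifiable formulation, water-diluted to the set dose, was then sprayed onto the foliage, and effects were scored three weeks later using previously defined criteria.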

[5] = test system: barnyard grass; assay: Test Example 4: herbicidal effect by soil treatment (Table 19, symbol H); type: in vivo, barnyard grass (Echinochloa crus-galli); settings: amount of applied herbicide 320 g/ha
How it was run: as §1

[6] = test system: green foxtail; assay: Test Example 5: herbicidal effect by foliage application, plastic box (Table 20, symbol G); type: in vivo, green foxtail (Setaria viridis); settings: foliage application, AAH 320 g/ha, evaluated three weeks after application
How it was run: as §2

[7] = test system: rice flat sedge; assay: Test Example 3: herbicidal effect by foliage application, Wagner pot (Table 18, symbol E); type: in vivo, rice flat sedge (Cyperus iria); settings: amount of applied herbicide 320 g/ha
How it was run: as §3

[8] = test system: Italian ryegrass; assay: Test Example 5: herbicidal effect by foliage application, plastic box (Table 20, symbol K); type: in vivo, Italian ryegrass (Lolium multiflorum); settings: foliage application, AAH 320 g/ha, evaluated three weeks after application
How it was run: as §2

[9] = test system: wild oat; assay: Test Example 4: herbicidal effect by soil treatment (Table 19, symbol I); type: in vivo, wild oat (Avena fatua); settings: amount of applied herbicide 320 g/ha
How it was run: as §1

[10] = test system: oval-leafed pondweed; assay: Test Example 1: herbicidal activity, application before weed generation under submerged conditions (Table 16, symbol C); type: in vivo, oval-leafed pondweed (Monochoria vaginalis); settings: 320 g/ha applied herbicide
How it was run: (§4)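 Emulsion formulation, water-diluted to set dose, was put onto the flooded surface (4 cm depth, alluvial soil) the same day weeds were sown and 2.5-leaf rice transplanted. After 3 weeks at 25-30 °C under glass, each species was rated 0 (≤5% kill) to 5 (≥90% kill).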

[11] = test system: chickweed; assay: Test Example 5: herbicidal effect by foliage application, plastic box (Table 20, symbol P); type: in vivo, common chickweed (Stellaria media); settings: foliage application, AAH 320 g/ha, evaluated three weeks after application
How it was run: as §2

[12] = test system: chickweed; assay: Test Example 4: herbicidal effect by soil treatment (Table 19, symbol P); type: in vivo, common chickweed (Stellaria media); settings: amount of applied herbicide 320 g/ha
How it was run: as §1

[13] = test system: green foxtail; assay: Test Example 4: herbicidal effect by soil treatment (Table 19, symbol G); type: in vivo, green foxtail (Setaria viridis); settings: amount of applied herbicide 320 g/ha
How it was run: as §1

[14] = test system: lambsquarters; assay: Test Example 5: herbicidal effect by foliage application, plastic box (Table 20, symbol O); type: in vivo, lambsquarters (Chenopodium album); settings: foliage application, AAH 320 g/ha, evaluated three weeks after application
How it was run: as §2

[15] = test system: southern crabgrass; assay: Test Example 4: herbicidal effect by soil treatment (Table 19, symbol F); type: in vivo, southern crabgrass (Digitaria ciliaris); settings: amount of applied herbicide 320 g/ha
How it was run: as §1

[16] = test system: southern crabgrass; assay: Test Example 5: herbicidal effect by foliage application, plastic box (Table 20, symbol F); type: in vivo, southern crabgrass (Digitaria ciliaris); settings: foliage application, AAH 320 g/ha, evaluated three weeks after application
How it was run: as §2

[17] = test system: Japanese bulrush; assay: Test Example 1: herbicidal activity, application before weed generation under submerged conditions (Table 16, symbol B); type: in vivo, Japanese bulrush (Schoenoplectus juncoides); settings: 320 g/ha applied herbicide
How it was run: as §4

[18] = test system: barnyard grass; assay: Test Example 5: herbicidal effect by foliage application, plastic box (Table 20, symbol H); type: in vivo, barnyard grass (Echinochloa crus-galli); settings: foliage application, AAH 320 g/ha, evaluated three weeks after application
How it was run: as §2

[19] = test system: late watergrass; assay: Test Example 1: herbicidal activity, application before weed generation under submerged conditions (Table 16, symbol A); type: in vivo, late watergrass (Echinochloa oryzicola); settings: 320 g/ha applied herbicide
How it was run: as §4

[20] = test system: windgrass; assay: Test Example 4: herbicidal effect by soil treatment (Table 19, symbol L); type: in vivo, windgrass (Apera spica-venti); settings: amount of applied herbicide 320 g/ha
How it was run: as §1

[21] = test system: windgrass; assay: Test Example 5: herbicidal effect by foliage application, plastic box (Table 20, symbol L); type: in vivo, windgrass (Apera spica-venti); settings: foliage application, AAH 320 g/ha, evaluated three weeks after application
How it was run: as §2

[22] = test system: velvetleaf; assay: Test Example 5: herbicidal effect by foliage application, plastic box (Table 20, symbol M); type: in vivo, velvetleaf (Abutilon theophrasti); settings: foliage application, AAH 320 g/ha, evaluated three weeks after application
How it was run: as §2

[23] = test system: Italian ryegrass; assay: Test Example 4: herbicidal effect by soil treatment (Table 19, symbol K); type: in vivo, Italian ryegrass (Lolium multiflorum); settings: amount of applied herbicide 320 g/ha
How it was run: as §1

[24] = test system: redroot pigweed; assay: Test Example 5: herbicidal effect by foliage application, plastic box (Table 20, symbol N); type: in vivo, redroot pigweed (Amaranthus retroflexus); settings: foliage application, AAH 320 g/ha, evaluated three weeks after application
How it was run: as §2

[25] = test system: persian speedwell; assay: Test Example 5: herbicidal effect by foliage application, plastic box (Table 20, symbol R); type: in vivo, Persian speedwell (Veronica persica); settings: foliage application, AAH 320 g/ha, evaluated three weeks after application
How it was run: as §2

[26] = test system: persian speedwell; assay: Test Example 4: herbicidal effect by soil treatment (Table 19, symbol R); type: in vivo, Persian speedwell (Veronica persica); settings: amount of applied herbicide 320 g/ha
How it was run: as §1

[27] = test system: blackgrass; assay: Test Example 4: herbicidal effect by soil treatment (Table 19, symbol J); type: in vivo, blackgrass (Alopecurus myosuroides); settings: amount of applied herbicide 320 g/ha
How it was run: as §1

[28] = test system: barnyard grass; assay: Test Example 3: herbicidal effect by foliage application, Wagner pot (Table 18, symbol H); type: in vivo, barnyard grass (Echinochloa crus-galli); settings: amount of applied herbicide 320 g/ha
How it was run: as §3

[29] = test system: redroot pigweed; assay: Test Example 4: herbicidal effect by soil treatment (Table 19, symbol N); type: in vivo, redroot pigweed (Amaranthus retroflexus); settings: amount of applied herbicide 320 g/ha
How it was run: as §1

[30] = test system: wild oat; assay: Test Example 5: herbicidal effect by foliage application, plastic box (Table 20, symbol I); type: in vivo, wild oat (Avena fatua); settings: foliage application, AAH 320 g/ha, evaluated three weeks after application
How it was run: as §2

SMILES: Cc1nn(C)c(=O)c(-c2c(-c3ccc(CSC(C)C)cc3)sc3ccc(F)cc23)c1O [2-321]
- herbicidal effect on M: velvetleaf [1]: 1 (Herbicidal rate of 5% or more and less than 20%)
- herbicidal effect on O: lambsquarters [2]: 3 (Herbicidal rate of 40% or more and less than 70%)
- J: blackgrass, herbicidal effect (criteria 0-5) [3]: 4 (Herbicidal rate of 70% or more and less than 90%)
- herbicidal effect on D: Chinese sprangletop [4]: 3 (Herbicidal rate of 40% or more and less than 70%)
- herbicidal effect on H: barnyard grass [5]: 3 (Herbicidal rate of 40% or more and less than 70%)
- G: green foxtail, herbicidal effect (criteria 0-5) [6]: 5 (Herbicidal rate of 90% or more (almost completely withered))
- herbicidal effect on E: rice flat sedge [7]: 5 (Herbicidal rate of 90% or more (almost completely withered))
- K: Italian ryegrass, herbicidal effect (criteria 0-5) [8]: 4 (Herbicidal rate of 70% or more and less than 90%)
- herbicidal effect on I: wild oat [9]: 0 (Herbicidal rate of 5% or less (almost no effect))
- Herbicidal effect on C: oval-leafed pondweed (grade 0-5) [10]: 0 (Herbicidal rate of 5% or less (almost no effect))
- P: chickweed, herbicidal effect (criteria 0-5) [11]: 5 (Herbicidal rate of 90% or more (almost completely withered))
- herbicidal effect on P: chickweed [12]: 0 (Herbicidal rate of 5% or less (almost no effect))
- herbicidal effect on G: green foxtail [13]: 4 (Herbicidal rate of 70% or more and less than 90%)
- O: lambsquarters, herbicidal effect (criteria 0-5) [14]: 5 (Herbicidal rate of 90% or more (almost completely withered))
- herbicidal effect on F: southern crabgrass [15]: 3 (Herbicidal rate of 40% or more and less than 70%)
- F: southern crabgrass, herbicidal effect (criteria 0-5) [16]: 5 (Herbicidal rate of 90% or more (almost completely withered))
- Herbicidal effect on B: Japanese bulrush (grade 0-5) [17]: 3 (Herbicidal rate of 40% or more and less than 70%)
- H: barnyard grass, herbicidal effect (criteria 0-5) [18]: 4 (Herbicidal rate of 70% or more and less than 90%)
- Herbicidal effect on A: late watergrass (grade 0-5) [19]: 3 (Herbicidal rate of 40% or more and less than 70%)
- herbicidal effect on L: windgrass [20]: 0 (Herbicidal rate of 5% or less (almost no effect))
- L: windgrass, herbicidal effect (criteria 0-5) [21]: 5 (Herbicidal rate of 90% or more (almost completely withered))
- M: velvetleaf, herbicidal effect (criteria 0-5) [22]: 5 (Herbicidal rate of 90% or more (almost completely withered))
- herbicidal effect on K: Italian ryegrass [23]: 0 (Herbicidal rate of 5% or less (almost no effect))
- N: redroot pigweed, herbicidal effect (criteria 0-5) [24]: 5 (Herbicidal rate of 90% or more (almost completely withered))
- R: persian speedwell, herbicidal effect (criteria 0-5) [25]: 5 (Herbicidal rate of 90% or more (almost completely withered))
- herbicidal effect on R: persian speedwell [26]: 5 (Herbicidal rate of 90% or more (almost completely withered))
- herbicidal effect on J: blackgrass [27]: 0 (Herbicidal rate of 5% or less (almost no effect))
- herbicidal effect on H: barnyard grass [28]: 5 (Herbicidal rate of 90% or more (almost completely withered))
- herbicidal effect on N: redroot pigweed [29]: 4 (Herbicidal rate of 70% or more and less than 90%)
- I: wild oat, herbicidal effect (criteria 0-5) [30]: 3 (Herbicidal rate of 40% or more and less than 70%)

SMILES: Cc1nn(C)c(=O)c(-c2c(-c3ccc(F)cc3F)sc3ccc(F)cc23)c1O [2-342]
- herbicidal effect on M: velvetleaf [1]: 3 (Herbicidal rate of 40% or more and less than 70%)
- herbicidal effect on O: lambsquarters [2]: 4 (Herbicidal rate of 70% or more and less than 90%)
- J: blackgrass, herbicidal effect (criteria 0-5) [3]: 4 (Herbicidal rate of 70% or more and less than 90%)
- herbicidal effect on D: Chinese sprangletop [4]: 5 (Herbicidal rate of 90% or more (almost completely withered))
- herbicidal effect on H: barnyard grass [5]: 4 (Herbicidal rate of 70% or more and less than 90%)
- G: green foxtail, herbicidal effect (criteria 0-5) [6]: 5 (Herbicidal rate of 90% or more (almost completely withered))
- herbicidal effect on E: rice flat sedge [7]: 5 (Herbicidal rate of 90% or more (almost completely withered))
- K: Italian ryegrass, herbicidal effect (criteria 0-5) [8]: 5 (Herbicidal rate of 90% or more (almost completely withered))
- herbicidal effect on I: wild oat [9]: 0 (Herbicidal rate of 5% or less (almost no effect))
- Herbicidal effect on C: oval-leafed pondweed (grade 0-5) [10]: 0 (Herbicidal rate of 5% or less (almost no effect))
- P: chickweed, herbicidal effect (criteria 0-5) [11]: 5 (Herbicidal rate of 90% or more (almost completely withered))
- herbicidal effect on P: chickweed [12]: 3 (Herbicidal rate of 40% or more and less than 70%)
- herbicidal effect on G: green foxtail [13]: 4 (Herbicidal rate of 70% or more and less than 90%)
- O: lambsquarters, herbicidal effect (criteria 0-5) [14]: 5 (Herbicidal rate of 90% or more (almost completely withered))
- herbicidal effect on F: southern crabgrass [15]: 3 (Herbicidal rate of 40% or more and less than 70%)
- F: southern crabgrass, herbicidal effect (criteria 0-5) [16]: 5 (Herbicidal rate of 90% or more (almost completely withered))
- Herbicidal effect on B: Japanese bulrush (grade 0-5) [17]: 3 (Herbicidal rate of 40% or more and less than 70%)
- H: barnyard grass, herbicidal effect (criteria 0-5) [18]: 5 (Herbicidal rate of 90% or more (almost completely withered))
- Herbicidal effect on A: late watergrass (grade 0-5) [19]: 2 (Herbicidal rate of 20% or more and less than 40%)
- herbicidal effect on L: windgrass [20]: 3 (Herbicidal rate of 40% or more and less than 70%)
- L: windgrass, herbicidal effect (criteria 0-5) [21]: 5 (Herbicidal rate of 90% or more (almost completely withered))
- M: velvetleaf, herbicidal effect (criteria 0-5) [22]: 5 (Herbicidal rate of 90% or more (almost completely withered))
- herbicidal effect on K: Italian ryegrass [23]: 5 (Herbicidal rate of 90% or more (almost completely withered))
- N: redroot pigweed, herbicidal effect (criteria 0-5) [24]: 5 (Herbicidal rate of 90% or more (almost completely withered))
- R: persian speedwell, herbicidal effect (criteria 0-5) [25]: 5 (Herbicidal rate of 90% or more (almost completely withered))
- herbicidal effect on R: persian speedwell [26]: 3 (Herbicidal rate of 40% or more and less than 70%)
- herbicidal effect on J: blackgrass [27]: 3 (Herbicidal rate of 40% or more and less than 70%)
- herbicidal effect on H: barnyard grass [28]: 5 (Herbicidal rate of 90% or more (almost completely withered))
- herbicidal effect on N: redroot pigweed [29]: 4 (Herbicidal rate of 70% or more and less than 90%)
- I: wild oat, herbicidal effect (criteria 0-5) [30]: 4 (Herbicidal rate of 70% or more and less than 90%)
